Measured values: patent US20240116850A1, “COMPOSITIONS AND METHODS RELATED TO BICYCLO[2.2.1] HEPTANAMINE-CONTAINING COMPOUNDS” (The Broad Institute, Inc., priority 2020, published 2024)

Tests used:
MUC1-wt = experiment: High-content imaging assay of MUC1-wt total cytoplasm intensity in P cells; type: cell-based; details: for EC50: MUC1-wt total cytoplasm intensity, P cells, 48 hr incubation; for WT ECMax: MUC1-wt, DMSO = 0, JQ1 (250 nM) = −100% activity
Protocol: (§1) P cells were seeded 24 hr prior to compound treatment at a density of 12,000 cells/well in 384 well Cell Carrier Ultra plates (6057308, Perkin Elmer), pre-coated with 0.25 mg/mL Synthemax 11 SC Substrate (3535, Corning). Compounds were used at 5 doses (35, 3.5, 0.35, 0.035 and 0.0035 μM) for the primary screen and 10 doses (16, 5.6, 1.8, 0.6, 0.21, 0.07, 0.02, 0.008, 0.002 and 0.0008 μM) for the following screens. The compounds, in two replicates, were transferred from compound source plates to the cell plates using the HighRes Pin Tool. DMSO was used as a negative control and JQ1 (250 nM) (a bromodomain inhibitor) was chosen as a positive control, based on earlier studies showing its potent effect on reducing total MUC1 mRNA levels (data not shown). After 48 hr incubation, cells were fixed for 20 min in 4% PFA (Electron Microscopy Sciences) in PBS, washed twice, then permeabilized (10 min) with 0.5% Triton-X100 (X100-100MVL, Sigma-Aldrich) in PBS and washed once more. Cells were blocked for 10 min at RT with Blocking solution (100 mM Tris HCL pH8; l150 mM NaCL; 5 g/L Blocking Reagent [11096176001, Roche]), then incubated 90 min at RT with one of the following primary antibodies in Roche Blocking solution: 1:500, monoclonal Fab-A-V5H anti-MUC1-fs, AbD22655.2, Bio-Rad; 1:2000, monoclonal mouse anti-MUC1 (214D4), 05-652-KC, Millipore; 1:1000, monoclonal, Rabbit anti-GM130 (D6B1) XP, 12480, Cell signaling technology. The primary antibody cocktail was incubated at RT for 1.5 hr, followed by four PBS wash cycles. The secondary antibody cocktail contained four components that were all prepared at a 1:1000 dilution in the Roche blocking solution and consisted of Alexa Fluor® 488-conjugated AffiniPure F(ab′)2 Fragment Goat anti-Human IgG, 109-546-097, Jackson Immunoresearch; Alexa Fluor® 647-conjugated Goat anti-Rabbit IgG, A-21246, Thermo Fisher Scientific®; Alexa Fluor® 546 Goat anti-mouse IgG, A-21123, Thermo Fisher Scientific® and Hoechst 33342 stain (62249, Thermo Fisher Scientific®). The secondary antibody cocktail was incubated at RT for 45 min, followed by four PBS wash cycles. Finally, plates were sealed with a Plate Loc plate and stored in Liconic incubator at 10° C. until imaging. Following image analysis, three parameters were selected, i) MUC1-fs and ii) MUC1-wt total cytoplasm intensity (averaged per cell) and iii) cell number as was detected by Hoechst 33342 stained nuclei. The levels of MUC1-fs and MUC1-wt found following DMSO and JQ1 were defined as 0 and −100% activity, respectively. The values obtained for all compounds were normalized accordingly. Cell number was normalized to DMSO control.
(§2) The pure enantiomers were profiled in the high-content imaging assay for the ability to reduce the amount of FS MUC1 protein in the cytoplasm (Table 48) following the procedure of Example 4.

MUC1-fs = experiment: High-content imaging assay of MUC1-fs total cytoplasm intensity in P cells; type: cell-based; details: for EC50: MUC1-fs total cytoplasm intensity, P cells, 48 hr incubation; for ECMax: MUC1-fs, DMSO = 0, JQ1 (250 nM) = −100% activity
Protocol: as §1, §2

[1] = high-content imaging assay, procedure of Example 4

| SMILES | EC50 (MUC1-wt) | EC50 (MUC1-fs) | IC50 (MUC1-fs; [1]) | IC50 (MUC1-fs; second pair of columns (c3-c4)) | WT ECMax (MUC1-wt) | ECMax (MUC1-fs) | reduction in wild-type MUC1 levels (MUC1-wt; [1]) | FS MUC1 cytoplasm EMax (%) (MUC1-fs; [1]) | FS MUC1 cytoplasm EMax (%) (MUC1-fs; second pair of columns (c3-c4)) |
| --- | --- | --- | --- | --- | --- | --- | --- | --- | --- |
| C[C@@H]1[C@H]2CC[C@H](C2)[C@H]1N.Cl (single isomer, unassigned) [Compound 104-P2, hydrochloride] | > 32 µM | 4.5 µM | – | – | – | – | – | – | – |
| CCC[C@H]1[C@H]2CC[C@H](C2)[C@@H]1N.Cl (racemic) [Compound 108-rac] | > 32 µM | > 32 µM | – | – | −4.32% | −8.01% | – | – | – |
| CCC[C@@H]1[C@H]2CC[C@H](C2)[C@H]1N.Cl [Compound 107-P1] | > 32 µM | 25.8 µM | – | – | 14.07% | −15.72% | – | – | – |
| Cl.N[C@H]1[C@H]2CC[C@H](C2)[C@@H]1c1ccccc1 (single isomer, unassigned) [Compound 120-P2] | > 32 µM | > 32 µM | – | – | −11.21% | −24.61% | – | – | – |
| Cl.N[C@@H]1[C@@H]2CC[C@@H](C2)[C@H]1c1ccccc1 (racemic) [Compound 120] | > 32 µM | > 32 µM | – | – | 15.88% | −27.71% | – | – | – |
| CC(C)[C@H]1[C@H]2CC[C@H](C2)[C@H]1N.Cl (racemic) [Compound 103, rac-3-endo-isopropylbicyclo[2.2.1]heptan-2-endo-amine hydrochloride] | > 32 µM | 2.14 µM | – | – | −13.31% | −83.25% | – | – | – |
| C[C@@H]1[C@H]2CC[C@H](C2)[C@H]1N.Cl (single isomer, unassigned) [Compound 104-P2] | – | – | – | – | −14.86% | −78.16% | – | – | – |
| CCC[C@H]1[C@@H]2CC[C@@H](C2)[C@@H]1N.Cl [Compound 107-P2] | > 32 µM | > 32 µM | – | – | 8.96% | −9.6% | – | – | – |
| Cl.N[C@H]1[C@@H]2CC[C@@H](C2)[C@@H]1C1CC1 (single isomer, unassigned) [Compound 110-P1] | – | – | – | – | −8.95% | −50.96% | – | – | – |
| Cl.N[C@@H]1[C@@H]2CC[C@@H](C2)[C@H]1c1cccs1 (racemic) [Compound 122] | > 32 µM | > 32 µM | – | – | −10.53% | −12.17% | – | – | – |
| CCC[C@H]1[C@H]2CC[C@H](C2)[C@@H]1N.Cl [Compound 108-P1] | > 32 µM | 29.9 µM | – | – | −12.05% | −24.9% | – | – | – |
| CC(C)[C@@H]1[C@H]2CC[C@H](C2)[C@H]1N.Cl (single isomer, unassigned) [BRD4780 Fr2, hydrochloride] | – | – | 0.175 µM | 12.6 µM | – | – | – | – | – |
| CC(C)C1C2CCC(C2)C1N.Cl (racemic) [BRD4780, rac-3-exo-isopropylbicyclo[2.2.1]heptan-2-endo-amine hydrochloride, reference compound] | – | – | – | – | – | – | no observed reduction | – | – |
| CC(C)[C@H]1[C@@H]2CC[C@@H](C2)[C@@H]1N.Cl (single isomer, unassigned) [BRD4780 Fr1, hydrochloride] | – | – | 0.156 µM | 9.2 µM | – | – | – | – | – |
| CC(C)[C@H]1[C@@H]2CC[C@@H](C2)[C@@H]1N.Cl (single isomer, unassigned) [BRD4780 Fr1] | – | – | – | – | – | – | – | −42% | 113% |
| CC(C)[C@@H]1[C@H]2CC[C@H](C2)[C@H]1N.Cl (single isomer, unassigned) [BRD4780 Fr2] | – | – | – | – | – | – | – | −46% | 60% |

Second part, led by results:

| EC50 (MUC1-wt) | EC50 (MUC1-fs) | IC50 (MUC1-fs; [1]) | IC50 (MUC1-fs; second pair of columns (c3-c4)) | SMILES | WT ECMax (MUC1-wt) | ECMax (MUC1-fs) | reduction in wild-type MUC1 levels (MUC1-wt; [1]) | FS MUC1 cytoplasm EMax (%) (MUC1-fs; [1]) | FS MUC1 cytoplasm EMax (%) (MUC1-fs; second pair of columns (c3-c4)) |
| --- | --- | --- | --- | --- | --- | --- | --- | --- | --- |
| > 32 µM | > 32 µM | – | – | CC(C)C[C@H]1[C@H]2CC[C@H](C2)[C@@H]1N.Cl (racemic) [Compound 112] | −8.84% | 18.48% | – | – | – |
| > 32 µM | 29.9 µM | – | – | Cl.N[C@H]1[C@@H]2CC[C@@H](C2)[C@@H]1C1CCC1 (single isomer, unassigned) [Compound 114-P1] | 5.99% | −28.1% | – | – | – |
| > 32 µM | 3.38 µM | – | – | Cl.N[C@@H]1[C@H]2CC[C@H](C2)[C@H]1C1CC1 (single isomer, unassigned) [Compound 110-P2, (1S,2R,3R,4R)-3-cyclopropylbicyclo[2.2.1]heptan-2-amine hydrochloride] | – | – | – | – | – |
| > 32 µM | > 32 µM | – | – | Cl.N[C@@H]1[C@@H]2CC[C@@H](C2)[C@H]1C1CC1 (single isomer, unassigned) [Compound 109-P1] | 9.06% | −32.29% | – | – | – |
| > 32 µM | > 32 µM | – | – | CC(C)C[C@@H]1[C@H]2CC[C@H](C2)[C@H]1N.Cl (single isomer, unassigned) [Compound 111-P1] | −10.33% | −12.73% | – | – | – |
| > 32 µM | > 32 µM | – | – | Cl.N[C@@H]1[C@@H]2CC[C@@H](C2)[C@H]1C1CCCC1 (single isomer, unassigned) [Compound 116-P1] | 18.63% | −10.6% | – | – | – |
| > 32 µM | > 32 µM | – | – | Cl.N[C@H]1[C@H]2CC[C@H](C2)[C@@H]1C1CCCC1 (single isomer, unassigned) [Compound 116-P2] | −19.89% | −16.96% | – | – | – |
| > 32 µM | 0.478 µM | – | – | Cl.N[C@@H]1[C@@H]2CC[C@@H](C2)[C@H]1C1CCC1 (racemic) [Compound 113] | 13.12% | −46.53% | – | – | – |
| > 32 µM | > 32 µM | – | – | Cl.N[C@@H]1[C@H]2CC[C@H](C2)[C@H]1C1CCC1 (single isomer, unassigned) [Compound 114-P2] | 9.94% | −15.43% | – | – | – |
| 12.3 µM | 0.295 µM | – | – | CC(C)(C)[C@@H]1[C@H]2CC[C@H](C2)[C@H]1N.Cl (racemic) [Compound 115] | 71.79% | −79.02% | – | – | – |
| > 32 µM | > 32 µM | – | – | Cl.N[C@@H]1[C@H]2CC[C@H](C2)[C@H]1C1CCCCC1 (single isomer, unassigned) [Compound 119-P2] | 0% | 0% | – | – | – |
| > 32 µM | > 32 µM | – | – | Cl.N[C@H]1[C@H]2CC[C@H](C2)[C@@H]1C1CCCCC1 (single isomer, unassigned) [Compound 118-P2] | 0% | 0% | – | – | – |
| > 32 µM | > 32 µM | – | – | CC(C)C[C@H]1[C@@H]2CC[C@@H](C2)[C@@H]1N.Cl (single isomer, unassigned) [Compound 111-P2] | −9.06% | −11.51% | – | – | – |
| > 32 µM | 0.52 µM | – | – | Cl.N[C@H]1[C@H]2CC[C@H](C2)[C@@H]1C1CC1 (single isomer, unassigned) [Compound 109-P2] | −14.32% | −74.31% | – | – | – |
| > 32 µM | > 32 µM | – | – | Cl.N[C@@H]1[C@@H]2CC[C@@H](C2)[C@H]1C1CCCCC1 (racemic) [Compound 118] | −8.52% | −9.08% | – | – | – |
| > 32 µM | 25.9 µM | – | – | Cl.N[C@H]1[C@@H]2CC[C@@H](C2)[C@@H]1C1CCCC1 (single isomer, unassigned) [Compound 117-P1] | 7.72% | −16.91% | – | – | – |
| > 32 µM | 12.9 µM | – | – | Cl.N[C@H]1[C@@H]2CC[C@@H](C2)[C@@H]1C1CCC1 (racemic) [Compound 114-rac] | 18.3% | −44.74% | – | – | – |
